# Values quoted from earlier work, collected in patent publication US20260199285A1, “TAXANE FORMULATIONS” (BIOPURIFICATION, LLC, priority 2022, published 2026).
# Key:
# [1] = system: advanced breast carcinoma
compound,measurement,setting,value
CC(=O)O[C@@]12CO[C@@H]1C[C@H](O)[C@@]1(C)C(=O)[C@H](O)C3=C(C)[C@@H](OC(=O)[C@H](O)[C@@H](NC(=O)OC(C)(C)C)c4ccccc4)C[C@@](O)([C@@H](OC(=O)c4ccccc4)[C@H]21)C3(C)C [docetaxel],inhibitory activity of tubulin depolymerization relative to paclitaxel,tubulin depolymerization,about 2 times
same,effective ratio for treatment of advanced breast carcinoma,[1],49%
